This is an account of results in patent US9840507B2, “5,6-dihydro-imidazo[1,2-a]pyrazin-8-ylamine derivatives useful as inhibitors of beta-secretase (BACE)” (Janssen Pharmaceutica, NV, priority 2010, dated 2017).

Like-named read-outs stand apart in the source and are kept apart here. Where only a bound is given, the exact number is not on record here.

Test [1] has as its system Aβtotal produced and secreted into the medium of human neuroblastoma SKNBE2 cells. The test can be described thus: Cellular αlisa assay in SKNBE2 cells, Aβtotal. It counts as cell-based. Conditions: for IC50: Homo sapiens, SKNBE2, 18 h, read-out: Cellular αlisa assay in SKNBE2 cells Aβtotal pIC50 (converted). As to the method:
(§1) In two αlisa assays the levels of Aβtotal and Aβ42 produced and secreted into the medium of human neuroblastoma SKNBE2 cells are quantified. The assay is based on the human neuroblastoma SKNBE2 expressing the wild type Amyloid Precursor Protein (hAPP695). The compounds are diluted and added to these cells, incubated for 18 hours and then measurements of Aβ42 and Aβtotal are taken. Aβtotal and Aβ42 are measured by sandwich αlisa. αlisa is a sandwich assay using biotinylated antibody AbN/25 attached to streptavidin coated beads and antibody Ab4G8 or cAb42/26 conjugated acceptor beads for the detection of Aβtotal and Aβ42 respectively. In the presence of Aβtotal or Aβ42, the beads come into close proximity. The excitation of the Donor beads provokes the release of singlet oxygen molecules that triggers a cascade of energy transfer in the Acceptor beads, resulting in light emission. Light emission is measured after 1 hour incubation (excitation at […] and emission at 615 nm).
(§2) A best-fit curve is fitted by a minimum sum of squares method to the plot of % Controlmin versus compound concentration.
(§3) LC=Median of the low control values
(§4) =Low control: cells preincubated without compound, without biotinylated Ab in the αlisa
(§5) HC=Median of the High control values
(§6) =High Control: cells preincubated without compound % Effect=100−[(sample−LC)/(HC−LC)*100] % Control=(sample/HC)*100% % Controlmin=(sample−LC)/(HC−LC)*100

In test [2] the test system is Aβ42 produced and secreted into the medium of human neuroblastoma SKNBE2 cells. As to the kind of experiment: Cellular αlisa assay in SKNBE2 cells, Aβ42. It counts as cell-based. The following applies: for IC50: Homo sapiens, SKNBE2, 18 h, read-out: Cellular αlisa assay in SKNBE2 cells Aβ42 pIC50 (converted). As to the method: as §1, §2, §3, §4, §5, §6
Test [3] addresses T1, recombinant BACE1 protein (Homo sapiens, UniProt P56817).
T1 construct: recombinant BACE1 protein in a final concentration of 1 μg/ml
The test can be described thus: Biochemical FRET based assay. The following applies: recombinant BACE1 1 μg/ml, 10 μm substrate, 120 minutes, room temperature, pH 5.0; for IC50: read-out: Biochemical FRET based assay pIC50 (converted).
From the text: This assay is a Fluorescence Resonance Energy Transfer Assay (FRET) based assay. The substrate for this assay is an APP derived 13 amino acids peptide that contains the ‘Swedish’ Lys-Met/Asn-Leu mutation of the amyloid precursor protein (APP) β-secretase cleavage site. This substrate also contains two fluorophores: (7-methoxycoumarin-4-yl) acetic acid (Mca) is a fluorescent donor with excitation wavelength at 320 nm and emission at 405 nm and 2,4-Dinitrophenyl (Dnp) is a proprietary quencher acceptor. […] Upon cleavage by BACE1, the fluorophore Mca is separated from the quenching group Dnp, restoring the full fluorescence yield of the donor. The increase in fluorescence is linearly related to the rate of proteolysis (Koike H et al. J. Biochem. 1999, 126, 235-242).
Briefly in a 384-well format recombinant BACE1 protein in a final concentration of 1 μg/ml is incubated for 120 minutes at room temperature with 10 μm substrate in incubation buffer (40 mM Citrate buffer pH 5.0, 0.04% PEG, 4% DMSO) in the absence or presence of compound. Next the amount of proteolysis is directly measured by fluorescence measurement at T=0 and T=120 (excitation at 320 nm and emission at 405 nm).
as §3
=Low control: Reaction without enzyme
as §5
=High Control: Reaction with enzyme % Effect=100−[(sample−LC)/(HC−LC)*100] % Control=(sample/HC)*100% % Controlmin=(sample−LC)/(HC−LC)*100

Setting [4] is: SKNBE2 cells expressing hAPP695, incubated for 18 hours.

T1 sequence (P56817 46-501): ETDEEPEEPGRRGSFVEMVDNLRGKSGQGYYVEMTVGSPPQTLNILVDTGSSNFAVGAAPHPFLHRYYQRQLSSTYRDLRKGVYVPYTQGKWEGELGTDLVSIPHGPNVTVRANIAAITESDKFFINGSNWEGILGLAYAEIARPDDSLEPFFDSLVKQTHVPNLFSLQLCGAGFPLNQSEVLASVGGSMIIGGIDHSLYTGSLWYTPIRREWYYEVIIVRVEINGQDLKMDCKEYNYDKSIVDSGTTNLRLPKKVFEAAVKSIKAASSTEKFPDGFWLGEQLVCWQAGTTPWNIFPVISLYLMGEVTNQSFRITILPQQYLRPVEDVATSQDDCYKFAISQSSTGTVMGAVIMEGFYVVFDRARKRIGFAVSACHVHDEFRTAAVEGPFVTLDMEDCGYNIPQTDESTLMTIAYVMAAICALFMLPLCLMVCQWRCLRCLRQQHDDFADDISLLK

As for `COc1cncc(-c2cccc(C3(C)Cn4ccnc4C(N)=N3)c2)c1` (racemic) [Compound 2, rac-6-[3-(5-methoxy-pyridin-3-yl)-phenyl]-6-methyl-5,6-dihydro-imidazo[1,2-a]pyrazin-8-ylamine], the IC50 is 2340 nM in test [1] (setting [4]) and 2140 nM in test [2] (setting [4]). Moreover, in test [3], the “Biochemical FRET based assay pIC50” value is listed as above 4.52.

With `COc1cnc(C(=O)Nc2ccc(F)c([C@]3(C)Cn4cc(C(F)(F)F)nc4C(N)=N3)c2)cn1` [Compound 26], the IC50 in test [1] (setting [4]) is 72.4 nM; in test [2] (setting [4]), 85.1 nM; in test [3], 234 nM.

Regarding `COc1cnc(C(=O)Nc2ccc(F)c([C@]3(C)Cn4c(Cl)cnc4C(N)=N3)c2)cn1` [Compound 57], the IC50 is 14.8 nM in test [1] (setting [4]), 13.5 nM in test [2] (setting [4]) and 66.1 nM in test [3].

As for `Cc1nc(C(=O)Nc2ccc(F)c([C@]3(C)Cn4ccnc4C(N)=N3)c2)c(C(F)(F)F)o1` [Compound 44], the IC50 is 93.3 nM in test [1] (setting [4]), 95.5 nM in test [2] (setting [4]) and 380 nM in test [3].

With `CC1(c2cccc(-c3cncnc3)c2)Cn2ccnc2C(N)=N1` (racemic) [Compound 1, rac-6-methyl-6-(3-pyrimidin-5-yl-phenyl)-5,6-dihydro-imidazo[1,2-a]pyrazin-8-ylamine], the IC50 in test [1] (setting [4]) was 174 nM; in test [2] (setting [4]), 191 nM; in test [3], 9770 nM.

As to `C[C@@]1(c2cc(NC(=O)c3ncc(C#N)cc3F)ccc2F)Cn2ccnc2C(N)=N1` [Compound 22], the results for the IC50 in test [1] (setting [4]), in test [2] (setting [4]) and in test [3] were 8.51 nM, 9.55 nM and 95.5 nM, respectively.

Turning to `CC1(c2cc(-c3cncnc3)c(F)cc2F)Cn2ccnc2C(N)=N1` (single isomer, unassigned) [Compound 11], the IC50 in test [1] (setting [4]) was 1950 nM; in test [2] (setting [4]), 2340 nM; in test [3], 16600 nM.

Consider `C[C@@]1(c2cc(NC(=O)c3ncc(Cl)cc3F)ccc2F)Cn2ccnc2C(N)=N1` [Compound 20], for which the figures for the IC50 in test [1] (setting [4]), in test [2] (setting [4]) and in test [3] were 17.8 nM, 17.4 nM and 75.9 nM, respectively.

For the compound `NC1=NC(c2cc(NC(=O)c3ccc(F)cn3)ccc2F)(C(F)F)Cn2ccnc21` (stereo not drawn) [Compound 27], the “Cellular αlisa assay in SKNBE2 cells Aβtotal pIC50” value in test [1] (setting [4]) amounted to 6.11. In test [2] (setting [4]), the “Cellular αlisa assay in SKNBE2 cells Aβ42 pIC50” value is listed as 6.05. Also, in test [3], the IC50 is 589 nM.

`C[C@@]1(c2cc(NC(=O)c3ccsn3)ccc2F)Cn2cc(C(F)(F)F)nc2C(N)=N1` [Compound 40]: the IC50 in test [1] (setting [4]) was 91.2 nM; in test [2] (setting [4]) it was 87.1 nM; in test [3], 229 nM.

As to `COc1cnc(C(=O)Nc2ccc(F)c([C@]3(C)Cn4cc(Cl)nc4C(N)=N3)c2)cn1` [Compound 52], the IC50 in test [1] (setting [4]) is 38 nM; in test [2] (setting [4]), 40.7 nM; in test [3], 97.7 nM.

Consider `C[C@@]1(c2cccc(-c3cc(Cl)cc(Cl)c3)c2)Cn2ccnc2C(N)=N1` [Compound 5, (R)-6-(3′,5′-dichloro-biphenyl-3-yl)-6-methyl-5,6-dihydro-imidazo[1,2-a]pyrazin-8-ylamine], for which the IC50 was 5010 nM in test [1], 5890 nM in test [2] and 14100 nM in test [3].

Consider `COc1cnc(C(=O)Nc2ccc(F)c([C@]3(C)Cn4cc(Br)nc4C(N)=N3)c2)cn1` [Compound 55], for which the figures for the IC50 in test [1] (setting [4]), in test [2] (setting [4]) and in test [3] were 32.4 nM, 31.6 nM and 112 nM, respectively.

Take `Cc1nc(C(=O)Nc2ccc(F)c([C@]3(C)Cn4cc(C(F)(F)F)nc4C(N)=N3)c2)co1` [Compound 38]: the results for the IC50 in test [1] (setting [4]), in test [2] (setting [4]) and in test [3] were 41.7 nM, 42.7 nM and 100 nM, respectively.

In the case of `C[C@@]1(c2cc(NC(=O)c3ccc(F)cn3)ccc2F)Cn2cc(Br)nc2C(N)=N1` [Compound 54], the IC50 in test [1] (setting [4]) is 35.5 nM; in test [2] (setting [4]) it was 32.4 nM; in test [3], 75.9 nM.

For the compound `NC1=NC(c2cc(NC(=O)c3ncc(Cl)cc3F)ccc2F)(C(F)F)Cn2ccnc21` (stereo not drawn) [Compound 33], the IC50 in test [1] (setting [4]) is 275 nM; in test [2] (setting [4]) it was 355 nM; in test [3], 224 nM.

As for `Cc1nc(C(=O)Nc2ccc(F)c([C@]3(C)Cn4ccnc4C(N)=N3)c2)co1` [Compound 43], the figures for the IC50 in test [1] (setting [4]), in test [2] (setting [4]) and in test [3] were 42.7 nM, 38 nM and 186 nM, respectively.

Take `CC1(c2cc(-c3cncnc3)ccc2F)Cn2ccnc2C(N)=N1` (single isomer, unassigned) [Compound 7]: the values for the IC50 in test [1] (setting [4]), in test [2] (setting [4]) and in test [3] were 2400 nM, 2750 nM and 20000 nM, respectively.

With `CC1(c2cccc(-c3cc(Cl)cc(Cl)c3)c2)Cn2ccnc2C(N)=N1` (racemic) [Compound 3, rac-6-(3′,5′-dichloro-biphenyl-3-yl)-6-methyl-5,6-dihydro-imidazo[1,2-a]pyrazin-8-ylamine], the IC50 in test [1] is 7080 nM; in test [2], 7940 nM; in test [3], 26900 nM.

On to `CCOc1cnc(C(=O)Nc2ccc(F)c([C@]3(C)Cn4ccnc4C(N)=N3)c2)cn1` [Compound 23], for which the IC50 in test [1] (setting [4]) is 37.2 nM; in test [2] (setting [4]), 25.1 nM; in test [3], 457 nM.

Turning to `C[C@@]1(c2cc(NC(=O)c3ccc(Cl)cn3)ccc2F)Cn2cc(C(F)F)nc2C(N)=N1` [Compound 50], the IC50 in test [1] (setting [4]) is 8.13 nM; in test [2] (setting [4]), 7.41 nM; in test [3] it was 58.9 nM.

Regarding `C[C@@]1(c2cc(NC(=O)c3ccn(C(F)F)n3)ccc2F)Cn2ccnc2C(N)=N1` [Compound 42], the IC50 is 20 nM in test [1] (setting [4]), 19.1 nM in test [2] (setting [4]) and 115 nM in test [3].

Consider `CC1(c2cc(-c3cncc(Cl)c3)c(F)cc2F)Cn2ccnc2C(N)=N1` (single isomer, unassigned) [Compound 12], for which the IC50 in test [1] (setting [4]) was 2190 nM; in test [2] (setting [4]) it was 2340 nM; in test [3] it was 18600 nM.

On to `Cc1nc(C(=O)Nc2ccc(F)c([C@]3(C)Cn4cc(C(F)(F)F)nc4C(N)=N3)c2)c(C)o1` [Compound 41], for which the IC50 was 117 nM in test [1] (setting [4]), 120 nM in test [2] (setting [4]) and 178 nM in test [3].

Consider `C[C@@]1(c2cc(NC(=O)c3ccc(F)cn3)ccc2F)Cn2cc(Cl)nc2C(N)=N1` [Compound 53], for which the IC50 was 35.5 nM in test [1] (setting [4]), 36.3 nM in test [2] (setting [4]) and 61.7 nM in test [3].

In the case of `CC1(c2cccc(NC(=O)c3ccc(Cl)cn3)c2)Cn2ccnc2C(N)=N1` (racemic) [Compound 6, rac-5-chloro-pyridine-2-carboxylic acid [3-(8-amino-6-methyl-5,6-dihydro-imidazo[1,2-a]pyrazin-6-yl)-phenyl]-amide], the figures for the IC50 in test [1] (setting [4]), in test [2] (setting [4]) and in test [3] were 69.2 nM, 70.8 nM and 331 nM, respectively.
